Among the data in patent US11884653B2, “Arylnaphthalene compounds as vacuolar-ATPase inhibitors and the use thereof” (Purdue Research Foundation, priority 2018, dated 2024) are IC50 values, retold here.

The assay addresses V-ATPase. The assay can be described thus: acridine orange quenching (proton-pumping function of V-ATPase) in isolated HEK293 vesicles. Type of assay: biochemical. Conditions: read-out: AO Quenching IC50. The procedure:
To assess if ability of diphyllin and derivatives to inhibit endosomal acidification is due to the expected ability of diphyllin to inhibit V-ATPase activity, compounds were assayed for inhibition of both the proton-pumping and ATPase functions of the isolated V-ATPase enzyme. V-ATPase containing vesicles were isolated from HEK293 cells following methods similar to that found in […]. (Zoncu, R. et al., Science 2011, 334, 678-683). To determine the effect of compounds upon the proton pumping function of V-ATPase, isolated vesicles were incubated with acridine orange and the compound or vehicle for 1 h prior to the addition of ATP which initiated pump activity. The quenching of the 530 nm emission of acridine orange was measured over 1h before addition of nigericin to relax the proton gradient within vesicles. IC50 values against the proton-pumping function of V-ATPase could be assessed by quantifying the change in Acridine Orange (AO) fluorescence immediately before and after the addition of nigericin.
HEK293 vesicle isolation-Cells were grown to confluency in a 175 cm^2 flask (Corning) before growth media was removed and replaced with serum-free DMEM for 2 h. 1 μM FCCP in DMEM was then added for 15 min before cells were scrapped form the plate and pelleted at 1000×g for 5 min. […]

Regarding `COc1cc2c(OCCCN3CCN(CCO)CC3)c3c(c(-c4ccc5c(c4)OCO5)c2cc1OC)C(=O)OC3` [Compound 2i, 9-(benzo[d][1,3]dioxol-5-yl)-4-(3-(4-(2-hydroxyethyl)piperazin-1-yl)propoxy)-6,7-dimethoxynaphtho[2,3-c]furan-1(3H)-one], the half-inhibitory concentration (IC50) (in general, the concentration that gives 50% inhibition) stood at 61 ± 2.84 nM.
